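Five concentrations, 48 hours, 96-well plates. At the TGI there is no net growth.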
Columns and labels:
Assay in all cases: NCI tumour cell line growth inhibition, 48 h
[1] = tested on: 786-0 renal
[2] = tested on: A549 NSCLC
[3] = tested on: ACHN renal
[4] = tested on: CAKI-1 renal
[5] = tested on: CCRF-CEM leukemia
[6] = tested on: COLO 205 colon
[7] = tested on: DLD-1 colon
[8] = tested on: DMS 114 small cell lung
[9] = tested on: DMS 273 small cell lung
[10] = tested on: EKVX NSCLC
[11] = tested on: HCC-2998 colon
[12] = tested on: HCT-116 colon
[13] = tested on: HCT-15 colon
[14] = tested on: HL-60(TB) leukemia
[15] = tested on: HOP-18 NSCLC
[16] = tested on: HOP-62 NSCLC
[17] = tested on: HOP-92 NSCLC
[18] = tested on: HT29 colon
[19] = tested on: IGROV1 ovarian
[20] = tested on: K-562 leukemia
[21] = tested on: KM12 colon
[22] = tested on: KM20L2 colon
[23] = tested on: LOX IMVI melanoma
[24] = tested on: M14 melanoma
[25] = tested on: M19-MEL melanoma
[26] = tested on: MALME-3M melanoma
[27] = tested on: MOLT-4 leukemia
[28] = tested on: NCI-H226 lung
[29] = tested on: NCI-H23 lung
[30] = tested on: NCI-H460 lung
[31] = tested on: OVCAR-3 ovarian
[32] = tested on: OVCAR-4 ovarian
[33] = tested on: OVCAR-5 ovarian
[34] = tested on: OVCAR-8 ovarian
[35] = tested on: RXF 393 renal
[36] = tested on: RXF-631 renal
[37] = tested on: SF-268 CNS
[38] = tested on: SF-295 CNS
[39] = tested on: SF-539 CNS
[40] = tested on: SK-MEL-2 melanoma
[41] = tested on: SK-MEL-28 melanoma
[42] = tested on: SK-MEL-5 melanoma
[43] = tested on: SK-OV-3 ovarian
[44] = tested on: SN12C renal
[45] = tested on: SNB-19 CNS
[46] = tested on: SNB-78 CNS
[47] = tested on: SR leukemia
[48] = tested on: SW-620 colon
[49] = tested on: TK-10 renal
[50] = tested on: U251 CNS
[51] = tested on: UACC-257 melanoma
[52] = tested on: UACC-62 melanoma
[53] = tested on: UO-31 renal
[54] = tested on: LXFL 529 NSCLC
[55] = tested on: NCI-H522 lung
[56] = tested on: RPMI-8226 leukemia
[57] = tested on: SNB-75 CNS
[58] = tested on: XF 498 CNS
[59] = tested on: A498 renal
[60] = tested on: BT-549 breast
[61] = tested on: DU-145 prostate
[62] = tested on: HS 578T breast
[63] = tested on: MCF7 breast
[64] = tested on: MDA-MB-231 breast
[65] = tested on: MDA-MB-435
[66] = tested on: MDA-N
[67] = tested on: NCI/ADR-RES ovarian
[68] = tested on: PC-3 prostate
[69] = tested on: T-47D breast

SMILES: N#CC(C(=O)CCCC(=O)Nc1ccc(Cl)cc1Cl)c1ccccc1 (stereo unspecified)
- TGI [1]: > 100 µM
- TGI [2]: > 100 µM
- TGI [3]: > 100 µM
- TGI [4]: > 100 µM
- TGI [5]: > 100 µM
- TGI [6]: > 100 µM
- TGI [7]: > 100 µM
- TGI [8]: > 100 µM
- TGI [9]: > 100 µM
- TGI [10]: > 100 µM
- TGI [11]: > 100 µM
- TGI [12]: > 100 µM
- TGI [13]: > 100 µM
- TGI [14]: > 100 µM
- TGI [15]: > 100 µM
- TGI [16]: > 100 µM
- TGI [17]: > 100 µM
- TGI [18]: > 100 µM
- TGI [19]: > 100 µM
- TGI [20]: > 100 µM
- TGI [21]: > 100 µM
- TGI [22]: > 100 µM
- TGI [23]: > 100 µM
- TGI [24]: > 100 µM
- TGI [25]: > 100 µM
- TGI [26]: > 100 µM
- TGI [27]: > 100 µM
- TGI [28]: > 100 µM
- TGI [29]: > 100 µM
- TGI [30]: > 100 µM
- TGI [31]: > 100 µM
- TGI [32]: > 100 µM
- TGI [33]: > 100 µM
- TGI [34]: > 100 µM
- TGI [35]: > 100 µM
- TGI [36]: > 100 µM
- TGI [37]: > 100 µM
- TGI [38]: > 100 µM
- TGI [39]: > 100 µM
- TGI [40]: > 100 µM
- TGI [41]: > 100 µM
- TGI [42]: > 100 µM
- TGI [43]: > 100 µM
- TGI [44]: > 100 µM
- TGI [45]: > 100 µM
- TGI [46]: > 100 µM
- TGI [47]: > 100 µM
- TGI [48]: > 100 µM
- TGI [49]: > 100 µM
- TGI [50]: > 100 µM
- TGI [51]: > 100 µM
- TGI [52]: > 100 µM
- TGI [53]: > 100 µM

SMILES: CCCCCCCC1(c2ccc(N)cc2)CCC(=O)NC1=O (stereo unspecified)
- TGI [1]: > 100 µM
- TGI [2]: > 100 µM
- TGI [3]: 67.3 µM
- TGI [4]: > 100 µM
- TGI [6]: 52.5 µM
- TGI [7]: > 100 µM
- TGI [8]: 85.3 µM
- TGI [9]: 73.8 µM
- TGI [10]: > 100 µM
- TGI [11]: > 100 µM
- TGI [13]: > 100 µM
- TGI [14]: 36.6 µM
- TGI [16]: > 100 µM
- TGI [17]: 51.9 µM
- TGI [19]: > 100 µM
- TGI [20]: > 100 µM
- TGI [21]: > 100 µM
- TGI [22]: > 100 µM
- TGI [23]: > 100 µM
- TGI [54]: > 100 µM
- TGI [24]: > 100 µM
- TGI [25]: > 100 µM
- TGI [26]: > 100 µM
- TGI [27]: 65.7 µM
- TGI [29]: > 100 µM
- TGI [30]: > 100 µM
- TGI [55]: 78.6 µM
- TGI [31]: 81.1 µM
- TGI [32]: > 100 µM
- TGI [33]: > 100 µM
- TGI [34]: > 100 µM
- TGI [56]: 40.8 µM
- TGI [35]: > 100 µM
- TGI [36]: > 100 µM
- TGI [37]: > 100 µM
- TGI [38]: 88.1 µM
- TGI [40]: > 100 µM
- TGI [41]: > 100 µM
- TGI [42]: 49.6 µM
- TGI [43]: > 100 µM
- TGI [44]: > 100 µM
- TGI [45]: > 100 µM
- TGI [57]: 96.2 µM
- TGI [46]: > 100 µM
- TGI [48]: > 100 µM
- TGI [49]: > 100 µM
- TGI [51]: > 100 µM
- TGI [52]: > 100 µM
- TGI [53]: 74.8 µM
- TGI [58]: 75.2 µM

SMILES: C1CN(c2nnc(N3CCC3)nn2)C1
- TGI [1]: 49.5 µM
- TGI [59]: > 100 µM
- TGI [2]: > 100 µM
- TGI [3]: > 92.1 µM
- TGI [60]: > 100 µM
- TGI [4]: > 100 µM
- TGI [5]: > 100 µM
- TGI [6]: > 92.4 µM
- TGI [7]: > 100 µM
- TGI [8]: 43.6 µM
- TGI [9]: > 60.2 µM
- TGI [61]: > 100 µM
- TGI [10]: > 100 µM
- TGI [11]: > 100 µM
- TGI [12]: > 100 µM
- TGI [13]: > 100 µM
- TGI [14]: > 100 µM
- TGI [15]: > 100 µM
- TGI [16]: > 100 µM
- TGI [17]: > 100 µM
- TGI [62]: > 92.9 µM
- TGI [18]: > 56.2 µM
- TGI [19]: > 100 µM
- TGI [20]: > 31.6 µM
- TGI [21]: > 100 µM
- TGI [22]: > 63.7 µM
- TGI [23]: 36.1 µM
- TGI [54]: 44 µM
- TGI [24]: 62.1 µM
- TGI [25]: 29.4 µM
- TGI [26]: > 79.3 µM
- TGI [63]: > 72.2 µM
- TGI [64]: > 60.2 µM
- TGI [65]: 32.4 µM
- TGI [66]: 31 µM
- TGI [27]: > 100 µM
- TGI [28]: > 100 µM
- TGI [29]: 79.7 µM
- TGI [30]: > 100 µM
- TGI [55]: 85.2 µM
- TGI [67]: > 100 µM
- TGI [31]: > 100 µM
- TGI [32]: > 64.6 µM
- TGI [33]: > 46.4 µM
- TGI [34]: > 100 µM
- TGI [68]: > 60 µM
- TGI [56]: > 100 µM
- TGI [35]: > 74.5 µM
- TGI [37]: > 100 µM
- TGI [38]: 69.6 µM
- TGI [39]: 77.6 µM
- TGI [40]: > 89.5 µM
- TGI [41]: > 68.3 µM
- TGI [42]: 73.3 µM
- TGI [43]: > 100 µM
- TGI [44]: 65.8 µM
- TGI [45]: > 79.5 µM
- TGI [57]: > 46.4 µM
- TGI [46]: > 100 µM
- TGI [47]: > 100 µM
- TGI [48]: 59 µM
- TGI [69]: > 100 µM
- TGI [49]: > 100 µM
- TGI [50]: > 92.6 µM
- TGI [51]: 49.4 µM
- TGI [52]: 38.5 µM
- TGI [53]: > 100 µM
- TGI [58]: 46.1 µM
